Assay results from patent US20230077290A1, “HEAVY METAL-FREE CALCIUM HYDROXIDE-BASED ACTIVE SUBSTANCE” (KALKFABRIK NETSTAL AG, priority 2016, published 2023).

Tests used:
[1] = test system: Plasmopara viticola; test: Tests against Plasmopara viticola on grapes, dust application before inoculation; format: in vivo, Plasmopara viticola on Chasselas grapes; conditions: for % leaf surface with symptoms of infection: average +/- standard deviation; for effect on Plasmopara viticola infection, in words: grapes, dust application, positive control Kocide Opti 0.003%
Protocol: Tests Against Plasmopara Viticola on Grapes The above-describe samples were tested in an independent plant research institute. The tests were set up as blind tests parallel to the following controls presented below. Study Design: […] For inoculation, the abaxial side of the fully developed leaves of Plasmopara viticola (50,000 spores/mL) were sprayed, and the entire plant was inoculated. Two types of all of the tests were performed: […] Dust application on the dry test plant before inoculation with the pathogen (so-called standard method) […] Dust application on a wet test plant before inoculation with the pathogen. […] Portion of infected leaf surface in percent of the overall leaf surface. The combined “efficacy severity” was then calculated from this in percent. Controls: […]

[2] = known compounds with very high capacity; cited from earlier work
[3] = Type 1 (dry), study of examples 1 and 2
[4] = Type 2 (wet), study of examples 1 and 2
[5] = Type 1 (dry), study of examples 3 and 4
[6] = Type 2 (wet), study of examples 3 and 4

[Ca+2].[OH-].[OH-] [Example 2, Calcium hydroxide]
% leaf surface with symptoms of infection ([1]; Type 1 (dry) dust application on dry plant, study of examples 1 and 2): 50 +/− 22%
% infected leaves [1, 3]: 89 +/− 17%
Efficacy severity [1, 3]: 46.8%
% leaf surface with symptoms of infection ([1]; Type 2 (wet) dust application on wet plant, study of examples 1 and 2): 59 +/− 22%
% infected leaves [1, 4]: 93 +/− 10%
Efficacy severity [1, 4]: 36.4%
effect on Plasmopara viticola infection, in words [1]: only a slight reduction of the infection

O=C([O-])[O-].[Li+].[Li+] [Li2CO3]
acid neutralization capacity bH+ [2]: 27 mol/kg

N [NH3]
acid neutralization capacity bH+ [2]: 59 mol/kg

[Na+].[OH-] [NaOH]
acid neutralization capacity bH+ [2]: 25 mol/kg

Calcium stearate [Example 4]
Efficacy severity [1, 5]: 7.3%
% leaf surface with symptoms of infection [1, 5]: 62 +/− 20%
% infected leaves ([1]; Type 1 (wet) as printed, study of examples 3 and 4): 93 +/− 10%
% infected leaves [1, 6]: 91 +/− 10%
Efficacy severity [1, 6]: 13.3%
% leaf surface with symptoms of infection [1, 6]: 58 +/− 8%
effect on Plasmopara viticola infection, in words [1]: inactive
